Test [1] has as its target T1, SIRT1 (Homo sapiens, UniProt Q96EB6).
T1 sequence (Q96EB6 1-747): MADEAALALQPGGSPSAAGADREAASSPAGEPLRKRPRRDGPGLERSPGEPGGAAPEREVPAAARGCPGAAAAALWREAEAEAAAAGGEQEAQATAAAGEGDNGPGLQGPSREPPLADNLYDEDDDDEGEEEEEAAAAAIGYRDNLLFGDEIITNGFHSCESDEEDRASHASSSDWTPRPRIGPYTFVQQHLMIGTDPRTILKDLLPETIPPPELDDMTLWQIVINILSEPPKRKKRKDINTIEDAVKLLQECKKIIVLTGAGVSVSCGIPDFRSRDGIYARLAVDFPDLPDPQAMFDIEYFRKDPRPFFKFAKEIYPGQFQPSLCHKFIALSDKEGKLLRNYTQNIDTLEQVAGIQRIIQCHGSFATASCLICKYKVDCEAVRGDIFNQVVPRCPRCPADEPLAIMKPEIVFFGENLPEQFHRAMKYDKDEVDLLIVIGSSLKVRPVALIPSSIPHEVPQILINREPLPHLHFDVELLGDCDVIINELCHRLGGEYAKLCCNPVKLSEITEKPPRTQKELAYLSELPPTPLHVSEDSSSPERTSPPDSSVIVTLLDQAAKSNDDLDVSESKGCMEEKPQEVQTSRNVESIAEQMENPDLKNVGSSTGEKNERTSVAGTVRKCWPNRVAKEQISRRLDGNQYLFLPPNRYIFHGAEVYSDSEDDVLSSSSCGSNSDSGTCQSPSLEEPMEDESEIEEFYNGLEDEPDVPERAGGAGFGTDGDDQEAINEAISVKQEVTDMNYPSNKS
Kind of test: TAMRA based mass spectrometry assay of SIRT1 activity. The format is biochemical. The conditions noted are these: for Emax: read-out: TAMRA % Fold Act. The method, boiled down:
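Recombinant N-terminal His-tagged human SIRT1 (10 nM, E. coli) incubated 25 min at 25 °C with 0.5 μM 5TMR-labelled p53-derived acetyl-peptide and 120 μM βNAD+ in Tris-acetate pH 8 buffer with DTT and 0.05% BSA, compound at varying concentrations. Stopped with formic acid; deacetylated peptide or OAADPR measured by mass spectrometry relative to DMSO controls.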

The target in test [2] is T1, SIRT1. Kind of test: Trp mass spectrometry assay of SIRT1 activity. The note with it: for Emax: read-out: Trp % Fold Act. The format is biochemical. The method, boiled down:
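His-tagged SIRT1 expressed in E. coli BL21(DE3), 10 nM, incubated 25 min at 25° C. with 0.5 μM Ac-RHKK(Ac)W-NH2 peptide and 120 μM βNAD+ in 50 mM HEPES pH 7.5, […], 1 mM DTT, 0.05% BSA; formic acid stop. OAADPR or deacetylated peptide measured by mass spectrometry; EC1.5 and percent maximum activation versus DMSO control.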

Where [3] appears, read: TAMRA peptide substrate, concentration giving 150% activation of SIRT1.
Where [4] appears, read: TAMRA peptide substrate, percent maximum fold activation.
[5] abbreviates: Trp peptide substrate, concentration giving 150% activation of SIRT1.
[6] abbreviates: Trp peptide substrate, percent maximum fold activation.
Setting [7] is: TAMRA assay, concentration giving 150% activation of SIRT1.
Setting [8] is: TAMRA assay, percent maximum fold activation.
Where [9] appears, read: Trp assay, concentration giving 150% activation of SIRT1.
The mark [10] stands for this setting: Trp assay, percent maximum fold activation.
Setting [11] is: concentration of test compound giving 150% activation of SIRT1, TAMRA peptide substrate.
The mark [12] stands for this setting: percent maximum fold activation of SIRT1, TAMRA peptide substrate.
Setting [13] is: concentration of test compound giving 150% activation of SIRT1, Trp peptide substrate.
[14] abbreviates: percent maximum fold activation of SIRT1, Trp peptide substrate.

As to `O=C(Nc1cccnc1)c1cnn2ccc(-c3ccccc3OC(F)(F)F)nc12` [Compound 530], the “TAMRA EC1.5” value on SIRT1 [1] (setting [3]) is “A (EC1.5<1 μM)”. For the same compound, the Emax at SIRT1 [1] (setting [4]) and on SIRT1 [2] (setting [6]) was not below 350% in each case. In addition, the “Trp EC1.5” value at SIRT1 [2] (setting [5]) is on record as “A (EC1.5<1 μM)”.
Consider `O=C(Nc1cnc2ccc(-c3ccccc3F)nn12)c1nccs1` [Compound 303], for which the “TAMRA EC1.5 (μM)” value at SIRT1 [1] (setting [7]) is reported as “B (EC1.5 1-25 μM)”. Further, the Emax on SIRT1 [1] (setting [8]) and at SIRT1 [2] (setting [10]) was less than 350% in each case. The “Trp EC1.5 (μM)” value on SIRT1 [2] (setting [9]) is recorded as “C (EC1.5>25 μM)”.
As to `O=C(Nc1cccc(N2CCOCC2)n1)c1cnc2ccc(N3CCCC(C(F)(F)F)C3)nn12` (centres unmarked) [Compound 578], the “TAMRA EC1.5” value at SIRT1 [1] (setting [3]) is “A (EC1.5<1 μM)”. Moreover, the Emax on SIRT1 [1] (setting [4]) and on SIRT1 [2] (setting [6]) was not below 350% in each case. Further, the “Trp EC1.5” value at SIRT1 [2] (setting [5]) is recorded as “A (EC1.5<1 μM)”.
For the compound `O=C(Nc1cnc2ccc(-c3ccccc3C(F)(F)F)nn12)c1cccnc1OCC(O)CO` (centres unmarked) [Compound 146], the “TAMRA EC1.5 (μM)” value at SIRT1 [1] (setting [11]) is “A (EC1.5<1 μM)”. The Emax at SIRT1 [1] (setting [12]) and at SIRT1 [2] (setting [14]) was not below 350% each time. Also, at SIRT1 [2] (setting [13]), the “Trp EC1.5 (μM)” value is recorded as “B (EC1.5 1-25 μM)”.
Turning to `O=C(Nc1ccncn1)c1cnc2ccc(-c3ccccc3OC(F)(F)F)nn12` [Compound 358], the “TAMRA EC1.5 (μM)” value at SIRT1 [1] (setting [7]) is on record as “A (EC1.5<1 μM)”. The Emax on SIRT1 [1] (setting [8]) and on SIRT1 [2] (setting [10]) was not below 350% throughout. Moreover, the “Trp EC1.5 (μM)” value on SIRT1 [2] (setting [9]) is reported as “B (EC1.5 1-25 μM)”.
Turning to `Cc1nc2ccc(-c3cccc(OC[C@H](O)CO)c3)nn2c1C(=O)Nc1ccncn1` [Compound 594], the “TAMRA EC1.5” value at SIRT1 [1] (setting [3]) is “B (EC1.5 1-25 μM)”. The Emax on SIRT1 [1] (setting [4]) and at SIRT1 [2] (setting [6]) was less than 350% in each case. The “Trp EC1.5” value on SIRT1 [2] (setting [5]) is given as “B (EC1.5 1-25 μM)”.
Turning to `O=C(Nc1cnn2ccc(-c3ccccc3C(F)(F)F)nc12)c1cccc(-n2cnnc2)n1` [Compound 748], the “TAMRA EC1.5 (μM)” value on SIRT1 [1] (setting [7]) was “A (EC1.5<1 μM)”. The Emax at SIRT1 [1] (setting [8]) is not below 350%; at SIRT1 [2] (setting [10]), less than 350%. The “Trp EC1.5 (μM)” value on SIRT1 [2] (setting [9]) is reported as “B (EC1.5 1-25 μM)”.
For `O=C(Nc1ccnc(N2CCC2)c1)c1cnc2ccc(-c3ccccc3F)nn12` [Compound 134], at SIRT1 [1] (setting [11]), the “TAMRA EC1.5 (μM)” value is reported as “A (EC1.5<1 μM)”. Further, the Emax was not below 350% at SIRT1 [1] (setting [12]) and less than 350% on SIRT1 [2] (setting [14]). Further, the “Trp EC1.5 (μM)” value at SIRT1 [2] (setting [13]) is recorded as “C (EC1.5>25 μM)”.
`O=C(Nc1ccnc(N2CCC2)c1)c1cnc2ccc(-c3cccc(Cl)c3F)nn12` [Compound 159]: the “TAMRA EC1.5 (μM)” value at SIRT1 [1] (setting [11]) was “A (EC1.5<1 μM)”. For the same compound, the Emax on SIRT1 [1] (setting [12]) and on SIRT1 [2] (setting [14]) was less than 350% throughout. In addition, the “Trp EC1.5 (μM)” value on SIRT1 [2] (setting [13]) is given as “B (EC1.5 1-25 μM)”.
As for `COc1cccc(NC(=O)c2cnc3ccc(-c4ccccc4Cl)nn23)n1` [Compound 261], the “TAMRA EC1.5 (μM)” value on SIRT1 [1] (setting [7]) is reported as “A (EC1.5<1 μM)”. Besides, the Emax at SIRT1 [1] (setting [8]) and at SIRT1 [2] (setting [10]) was less than 350% each time. In addition, on SIRT1 [2] (setting [9]), the “Trp EC1.5 (μM)” value is reported as “A (EC1.5<1 μM)”.
As for `Cc1cc(-c2ccccc2C(F)(F)F)nn2c(C(=O)Nc3ccncc3F)cnc12` [Compound 541], the “TAMRA EC1.5” value on SIRT1 [1] (setting [3]) is “A (EC1.5<1 μM)”. In addition, the Emax at SIRT1 [1] (setting [4]) and on SIRT1 [2] (setting [6]) was not below 350% each time. Moreover, the “Trp EC1.5” value at SIRT1 [2] (setting [5]) is listed as “B (EC1.5 1-25 μM)”.
As to `Cc1cc(NC(=O)c2c(C)nc3c(C)cc(-c4ccccc4OC(F)(F)F)nn23)ccn1` [Compound 481], at SIRT1 [1] (setting [3]), the “TAMRA EC1.5” value was “A (EC1.5<1 μM)”. Further, the Emax at SIRT1 [1] (setting [4]) and on SIRT1 [2] (setting [6]) was not below 350% each time. For the same compound, the “Trp EC1.5” value on SIRT1 [2] (setting [5]) is “A (EC1.5<1 μM)”.
In the case of `Cc1nc2ccc(-c3cccc(F)c3)nn2c1C(=O)Nc1cccnn1` [Compound 767], at SIRT1 [1] (setting [7]), the “TAMRA EC1.5 (μM)” value is on record as “B (EC1.5 1-25 μM)”. Further, the Emax on SIRT1 [1] (setting [8]) was less than 350%; at SIRT1 [2] (setting [10]), not below 350%. Besides, the “Trp EC1.5 (μM)” value on SIRT1 [2] (setting [9]) was “A (EC1.5<1 μM)”.
On the same counts, the results for `O=C(Nc1ccc(F)cn1)c1cnc2ccc(-c3ccccc3OC[C@H](O)CO)nn12` [Compound 814] are “B (EC1.5 1-25 μM)”, not below 350%, less than 350% and “B (EC1.5 1-25 μM)”.

Values taken from patent US9957271B2, “Substituted bicyclic aza-heterocycles and analogues as sirtuin modulators” (GlaxoSmithKline, LLC, priority 2012, dated 2018).
